Assays:
Assay type in all cases: functional
[1] = tested on: HT-29; experiment: Growth inhibition of human HT-29 cells assessed as cell growth at 0.003 uM incubated for 48 hrs by sulforhodamine B assay relative to control; conditions: HT-29, 48 h, read-out: Activity
[2] = tested on: U-251; experiment: Growth inhibition of human U251 cells assessed as cell growth at 0.003 uM incubated for 48 hrs by sulforhodamine B assay relative to control; conditions: U-251, 48 h, read-out: Activity
[3] = tested on: CCRF-CEM; experiment: Growth inhibition of human CCRF-CEM cells assessed as cell growth at 0.03 uM incubated for 48 hrs by sulforhodamine B assay relative to control; conditions: read-out: Activity
[4] = tested on: HCT-116; experiment: Growth inhibition of human HCT116 cells assessed as cell growth at 0.03 uM incubated for 48 hrs by sulforhodamine B assay relative to control; conditions: HCT-116, 48 h, read-out: Activity
[5] = tested on: 786-0; experiment: Growth inhibition of human 786-0 cells assessed as cell growth at 0.03 uM incubated for 48 hrs by sulforhodamine B assay relative to control; conditions: 786-0, 48 h, read-out: Activity
[6] = tested on: NCI-H522; experiment: Growth inhibition of human NCI-H522 cells assessed as cell growth at 0.3 uM incubated for 48 hrs by sulforhodamine B assay relative to control; conditions: NCI-H522, 48 h, read-out: Activity
[7] = tested on: SW-620; experiment: Growth inhibition of human SW620 cells assessed as cell growth at 0.3 uM incubated for 48 hrs by sulforhodamine B assay relative to control; conditions: SW-620, 48 h, read-out: Activity
[8] = tested on: M14; experiment: Growth inhibition of human M14 cells assessed as cell growth at 0.3 uM incubated for 48 hrs by sulforhodamine B assay relative to control; conditions: M14, 48 h, read-out: Activity
[9] = tested on: MDA-MB-435; experiment: Growth inhibition of human MDA-MB-435 cells assessed as cell growth at 0.3 uM incubated for 48 hrs by sulforhodamine B assay relative to control; conditions: MDA-MB-435, 48 h, read-out: Activity
[10] = tested on: UACC-62; experiment: Growth inhibition of human UACC62 cells assessed as cell growth at 0.3 uM incubated for 48 hrs by sulforhodamine B assay relative to control; conditions: UACC-62, 48 h, read-out: Activity
[11] = tested on: OVCAR-4; experiment: Growth inhibition of human OVCAR4 cells assessed as cell growth at 0.3 uM incubated for 48 hrs by sulforhodamine B assay relative to control; conditions: OVCAR-4, 48 h, read-out: Activity
[12] = tested on: OVCAR-5; experiment: Growth inhibition of human OVCAR5 cells assessed as cell growth at 0.3 uM incubated for 48 hrs by sulforhodamine B assay relative to control; conditions: OVCAR-5, 48 h, read-out: Activity
[13] = tested on: SR; experiment: Growth inhibition of human SR cells assessed as cell growth at 3 uM incubated for 48 hrs by sulforhodamine B assay relative to control; conditions: read-out: Activity
[14] = tested on: M14; experiment: Growth inhibition of human M14 cells assessed as cell growth at 3 uM incubated for 48 hrs by sulforhodamine B assay relative to control; conditions: M14, 48 h, read-out: Activity
[15] = tested on: SK-MEL-28; experiment: Growth inhibition of human SK-MEL-28 cells assessed as cell growth at 3 uM incubated for 48 hrs by sulforhodamine B assay relative to control; conditions: SK-MEL-28, 48 h, read-out: Activity
[16] = tested on: HOP-92; experiment: Growth inhibition of human HOP92 cells assessed as cell growth at 30 uM incubated for 48 hrs by sulforhodamine B assay relative to control; conditions: HOP-92, 48 h, read-out: Activity
[17] = tested on: NCI-H322M; experiment: Growth inhibition of human NCI-H322M cells assessed as cell growth at 30 uM incubated for 48 hrs by sulforhodamine B assay relative to control; conditions: read-out: Activity
[18] = tested on: Malme-3M; experiment: Growth inhibition of human MALME-3M cells assessed as cell growth at 30 uM incubated for 48 hrs by sulforhodamine B assay relative to control; conditions: read-out: Activity
[19] = tested on: HOP-92; experiment: Growth inhibition of human HOP92 cells assessed as cell growth at 0.1 uM incubated for 48 hrs by sulforhodamine B assay relative to control; conditions: HOP-92, 48 h, read-out: Activity
[20] = tested on: NCI-H23; experiment: Growth inhibition of human NCI-H23 cells assessed as cell growth at 0.1 uM incubated for 48 hrs by sulforhodamine B assay relative to control; conditions: NCI-H23, 48 h, read-out: Activity
[21] = tested on: HT-29; experiment: Growth inhibition of human HT-29 cells assessed as cell growth at 0.1 uM incubated for 48 hrs by sulforhodamine B assay relative to control; conditions: HT-29, 48 h, read-out: Activity
[22] = tested on: NCI/ADR-RES; experiment: Growth inhibition of human NCI/ADR-RES cells assessed as cell growth at 0.1 uM incubated for 48 hrs by sulforhodamine B assay relative to control; conditions: read-out: Activity
[23] = tested on: 786-0; experiment: Growth inhibition of human 786-0 cells assessed as cell growth at 0.1 uM incubated for 48 hrs by sulforhodamine B assay relative to control; conditions: 786-0, 48 h, read-out: Activity
[24] = tested on: SN12C; experiment: Growth inhibition of human SN12C cells assessed as cell growth at 0.1 uM incubated for 48 hrs by sulforhodamine B assay relative to control; conditions: read-out: Activity
[25] = tested on: BT-549; experiment: Growth inhibition of human BT549 cells assessed as cell growth at 0.1 uM incubated for 48 hrs by sulforhodamine B assay relative to control; conditions: BT-549, 48 h, read-out: Activity
[26] = tested on: LOX IMVI; experiment: Growth inhibition of human LOXIMVI cells assessed as cell growth at 1 uM incubated for 48 hrs by sulforhodamine B assay relative to control; conditions: read-out: Activity
[27] = tested on: SN12C; experiment: Growth inhibition of human SN12C cells assessed as cell growth at 1 uM incubated for 48 hrs by sulforhodamine B assay relative to control; conditions: read-out: Activity
[28] = tested on: HOP-92; experiment: Growth inhibition of human HOP92 cells assessed as cell growth at 10 uM incubated for 48 hrs by sulforhodamine B assay relative to control; conditions: HOP-92, 48 h, read-out: Activity
[29] = tested on: U-251; experiment: Growth inhibition of human U251 cells assessed as cell growth at 10 uM incubated for 48 hrs by sulforhodamine B assay relative to control; conditions: U-251, 48 h, read-out: Activity
[30] = tested on: OVCAR-5; experiment: Growth inhibition of human OVCAR5 cells assessed as cell growth at 10 uM incubated for 48 hrs by sulforhodamine B assay relative to control; conditions: OVCAR-5, 48 h, read-out: Activity
[31] = tested on: OVCAR-8; experiment: Growth inhibition of human OVCAR8 cells assessed as cell growth at 10 uM incubated for 48 hrs by sulforhodamine B assay relative to control; conditions: OVCAR-8, 48 h, read-out: Activity
[32] = tested on: COLO 205; experiment: Growth inhibition of human COLO205 cells assessed as cell growth at 100 uM incubated for 48 hrs by sulforhodamine B assay relative to control; conditions: COLO 205, 48 h, read-out: Activity
[33] = tested on: KM12; experiment: Growth inhibition of human KM12 cells assessed as cell growth at 100 uM incubated for 48 hrs by sulforhodamine B assay relative to control; conditions: KM12, 48 h, read-out: Activity
[34] = tested on: M14; experiment: Growth inhibition of human M14 cells assessed as cell growth at 100 uM incubated for 48 hrs by sulforhodamine B assay relative to control; conditions: M14, 48 h, read-out: Activity
[35] = tested on: NCI/ADR-RES; experiment: Growth inhibition of human NCI/ADR-RES cells assessed as cell growth at 100 uM incubated for 48 hrs by sulforhodamine B assay relative to control; conditions: read-out: Activity
[36] = tested on: SK-OV-3; experiment: Growth inhibition of human SKOV3 cells assessed as cell growth at 100 uM incubated for 48 hrs by sulforhodamine B assay relative to control; conditions: SK-OV-3, 48 h, read-out: Activity

SMILES	growth at 0.003 µM [1]	growth at 0.003 µM [2]	growth at 0.03 µM [3]	growth at 0.03 µM [4]	growth at 0.03 µM [5]	growth at 0.3 µM [6]	growth at 0.3 µM [7]	growth at 0.3 µM [8]	growth at 0.3 µM [9]	growth at 0.3 µM [10]	growth at 0.3 µM [11]	growth at 0.3 µM [12]	growth at 3 µM [13]	growth at 3 µM [14]	growth at 3 µM [15]	growth at 30 µM [16]	growth at 30 µM [17]	growth at 30 µM [18]	growth at 0.1 µM [19]	growth at 0.1 µM [20]	other results
COc1cc2cc(Oc3ccc(NC(=O)Nc4ccc(Cl)c(C(F)(F)F)c4)cc3)c(C)nc2cc1OC	97%	97%	103%	91%	83%	85%	99%	94%	91%	81%	94%	113%	-9%	18%	27%	-79%	-86%	-37%	–	–	–
COc1cc2cc(Oc3ccc(NC(=O)Nc4cc(C(F)(F)F)cc(C(F)(F)F)c4)cc3)c(C)nc2cc1OC	–	–	–	–	–	–	–	–	–	–	–	–	–	–	–	–	–	–	90%	96%	growth at 0.1 µM [21]: 97%; growth at 0.1 µM [22]: 96%; growth at 0.1 µM [23]: 92%; growth at 0.1 µM [24]: 100%; growth at 0.1 µM [25]: 94%; growth at 1 µM [26]: 75%; growth at 1 µM [27]: 35%; growth at 10 µM [28]: -38%; growth at 10 µM [29]: -85%; growth at 10 µM [30]: -58%; growth at 10 µM [31]: -46%; growth at 100 µM [32]: -79%; growth at 100 µM [33]: -74%; growth at 100 µM [34]: -66%; growth at 100 µM [35]: -45%; growth at 100 µM [36]: -89%
COc1cc2cc(Oc3ccc(NC(=O)Nc4ccc(Cl)c(Cl)c4)cc3)c(C)nc2cc1OC	–	–	–	–	–	–	–	–	–	–	–	–	–	–	–	–	–	–	92%	93%	growth at 0.1 µM [21]: 110%; growth at 0.1 µM [22]: 100%; growth at 0.1 µM [23]: 95%; growth at 0.1 µM [24]: 95%; growth at 0.1 µM [25]: 88%; growth at 1 µM [26]: 85%; growth at 1 µM [27]: 85%; growth at 10 µM [28]: -41%; growth at 10 µM [29]: -13%; growth at 10 µM [30]: 50%; growth at 10 µM [31]: 13%; growth at 100 µM [32]: -100%; growth at 100 µM [33]: -58%; growth at 100 µM [34]: -94%; growth at 100 µM [35]: -46%; growth at 100 µM [36]: -57%
Cc1nc2cc(O)c(O)cc2cc1Oc1ccc(NC(=O)Nc2ccc(Cl)c(Cl)c2)cc1	103%	95%	95%	89%	95%	93%	100%	93%	90%	100%	94%	106%	28%	86%	92%	-20%	19%	-10%	–	–	–
